Drawing on ChEMBL document CHEMBL6115048, “Uncovering α-Selectivity for Liver X Receptor Agonists for Lipotoxic Cancer Therapies” (J Med Chem, 2025), this text covers Activity and EC50 for one molecule.

The source made the active and inactive calls. The rule behind the calls is not given here.

Data set [1] addresses T1, Vitamin D3 receptor (Homo sapiens) (UniProt P11473).
T1 sequence (whole entry): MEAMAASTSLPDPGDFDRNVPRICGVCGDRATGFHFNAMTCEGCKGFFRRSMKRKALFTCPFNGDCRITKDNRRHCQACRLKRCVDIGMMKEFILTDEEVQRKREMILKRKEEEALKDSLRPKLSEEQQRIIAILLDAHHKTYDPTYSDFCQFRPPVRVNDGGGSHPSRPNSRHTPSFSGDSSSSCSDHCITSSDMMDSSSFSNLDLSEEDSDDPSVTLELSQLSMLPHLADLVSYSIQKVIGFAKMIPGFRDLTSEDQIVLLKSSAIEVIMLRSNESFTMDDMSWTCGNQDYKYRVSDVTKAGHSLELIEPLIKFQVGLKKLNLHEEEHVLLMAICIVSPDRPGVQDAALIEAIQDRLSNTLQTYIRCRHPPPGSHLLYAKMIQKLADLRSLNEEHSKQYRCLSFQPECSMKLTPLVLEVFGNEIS
Nature of the data set: Agonist activity at VDR (unknown origin) transfected in human HepG2 cells co-transfected with renilla reniformis luciferase reporter at 10 uM incubated for 24 hrs by dual-luciferase reporter gene assay. Type of data set: cell-based. For orientation: A reporter such as luciferase makes a cellular process visible.

The target of data set [2] is T2, Peroxisome proliferator-activated receptor alpha (Homo sapiens) (UniProt Q07869).
T2 sequence (whole entry): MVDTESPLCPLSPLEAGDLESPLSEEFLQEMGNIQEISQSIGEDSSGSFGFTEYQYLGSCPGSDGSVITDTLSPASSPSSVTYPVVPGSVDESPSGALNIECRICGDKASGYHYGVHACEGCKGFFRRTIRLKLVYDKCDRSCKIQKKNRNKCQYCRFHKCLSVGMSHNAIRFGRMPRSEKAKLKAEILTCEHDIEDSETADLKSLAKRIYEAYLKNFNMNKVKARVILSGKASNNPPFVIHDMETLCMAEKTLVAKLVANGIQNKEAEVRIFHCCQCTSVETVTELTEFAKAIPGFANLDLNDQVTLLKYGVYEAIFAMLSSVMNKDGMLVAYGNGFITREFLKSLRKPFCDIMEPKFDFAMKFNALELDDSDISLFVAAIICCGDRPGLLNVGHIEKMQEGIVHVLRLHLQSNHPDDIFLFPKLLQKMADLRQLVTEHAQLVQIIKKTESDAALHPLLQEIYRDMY
Nature of the data set: Agonist activity at PPARalpha (unknown origin) transfected in human HepG2 cells co-transfected with renilla reniformis luciferase reporter at 10 uM incubated for 24 hrs by dual-luciferase reporter gene assay. Format: cell-based.

Data set [3] concerns the target T3, Peroxisome proliferator-activated receptor gamma (Homo sapiens) (UniProt P37231).
T3 sequence (whole entry): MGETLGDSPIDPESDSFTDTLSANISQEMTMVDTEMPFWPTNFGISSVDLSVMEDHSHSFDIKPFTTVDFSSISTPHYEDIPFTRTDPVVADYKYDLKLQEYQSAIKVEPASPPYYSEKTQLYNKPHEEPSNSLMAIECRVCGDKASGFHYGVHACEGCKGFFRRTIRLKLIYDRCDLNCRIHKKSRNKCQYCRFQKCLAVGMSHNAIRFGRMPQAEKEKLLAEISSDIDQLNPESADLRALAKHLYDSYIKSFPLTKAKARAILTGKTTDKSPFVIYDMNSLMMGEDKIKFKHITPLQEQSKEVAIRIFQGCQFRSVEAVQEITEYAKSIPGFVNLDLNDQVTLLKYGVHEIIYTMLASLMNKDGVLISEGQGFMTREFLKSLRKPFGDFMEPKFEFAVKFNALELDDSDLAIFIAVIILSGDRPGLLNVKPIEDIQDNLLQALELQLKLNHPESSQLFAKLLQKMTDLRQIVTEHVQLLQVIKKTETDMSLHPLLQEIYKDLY
The data set is described as follows: Agonist activity at PPARgamma (unknown origin) transfected in human HepG2 cells co-transfected with renilla reniformis luciferase reporter at 10 uM incubated for 24 hrs by dual-luciferase reporter gene assay. Format: cell-based.

For data set [4], the target named is T4, Estrogen receptor (Homo sapiens) (UniProt P03372).
T4 sequence (whole entry): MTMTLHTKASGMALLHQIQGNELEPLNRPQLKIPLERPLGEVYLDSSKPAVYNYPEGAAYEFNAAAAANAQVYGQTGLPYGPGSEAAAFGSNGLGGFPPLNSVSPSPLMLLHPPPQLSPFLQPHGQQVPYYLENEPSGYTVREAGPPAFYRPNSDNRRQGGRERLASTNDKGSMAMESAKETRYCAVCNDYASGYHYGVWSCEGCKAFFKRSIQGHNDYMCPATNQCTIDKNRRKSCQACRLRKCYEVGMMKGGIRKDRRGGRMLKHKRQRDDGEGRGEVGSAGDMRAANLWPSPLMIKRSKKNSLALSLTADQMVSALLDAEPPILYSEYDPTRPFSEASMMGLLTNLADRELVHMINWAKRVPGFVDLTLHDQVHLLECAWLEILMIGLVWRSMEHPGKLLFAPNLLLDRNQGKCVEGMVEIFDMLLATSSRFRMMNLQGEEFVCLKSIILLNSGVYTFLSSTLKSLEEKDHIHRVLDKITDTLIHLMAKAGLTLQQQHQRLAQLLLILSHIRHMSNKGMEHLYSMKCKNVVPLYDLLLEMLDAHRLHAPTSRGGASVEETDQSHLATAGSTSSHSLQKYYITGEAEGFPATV
Nature of the data set: Agonist activity at ERalpha (unknown origin) transfected in human HepG2 cells co-transfected with renilla reniformis luciferase reporter at 10 uM incubated for 24 hrs by dual-luciferase reporter gene assay. Format: cell-based.

The target of data set [5] is Estrogen receptor beta (Homo sapiens) (UniProt Q92731). The data set is described as follows: Agonist activity at ERbeta (unknown origin) transfected in human HepG2 cells co-transfected with renilla reniformis luciferase reporter at 10 uM incubated for 24 hrs by dual-luciferase reporter gene assay. Type of data set: cell-based.
Chain of Estrogen receptor beta (Homo sapiens) (Q92731 whole entry): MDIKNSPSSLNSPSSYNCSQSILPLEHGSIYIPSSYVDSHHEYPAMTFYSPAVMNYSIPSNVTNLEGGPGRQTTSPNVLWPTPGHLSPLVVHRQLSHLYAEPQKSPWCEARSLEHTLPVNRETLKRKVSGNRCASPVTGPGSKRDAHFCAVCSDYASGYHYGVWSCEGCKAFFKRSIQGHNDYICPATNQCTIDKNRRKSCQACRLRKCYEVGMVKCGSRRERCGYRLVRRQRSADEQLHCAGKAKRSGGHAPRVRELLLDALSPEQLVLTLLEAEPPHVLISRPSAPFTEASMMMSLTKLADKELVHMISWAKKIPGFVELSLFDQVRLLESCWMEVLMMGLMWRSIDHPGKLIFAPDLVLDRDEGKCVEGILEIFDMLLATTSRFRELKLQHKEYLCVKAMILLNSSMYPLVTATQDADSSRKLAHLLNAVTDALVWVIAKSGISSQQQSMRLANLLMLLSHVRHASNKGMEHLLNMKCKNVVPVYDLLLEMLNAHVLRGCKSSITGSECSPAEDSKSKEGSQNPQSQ
For data set [6], the system named is Hep 3B2. Nature of the data set: Antiproliferative activity against human Hep3B cells assessed as reduction in cell viability measured after 5 days in presence of sorafenib by Celltiter-glo assay. Format: functional, cell-based. Particulars: 120 h. (In general: ATP-based viability assays read luminescence as a measure of living cells.)
The test system of data set [7] is Hep 3B2. The data set is described as follows: Antiproliferative activity against human Hep3B cells assessed as reduction in cell viability measured after 5 days by Celltiter-glo assay. Type of data set: functional, cell-based. Particulars: time 5.0 day.
Data set [8] has as its system Hep 3B2. The data set is described as follows: Induction of endoplasmic reticulum (ER) stress in human Hep3B cells assessed as increase in CHOP expression measured after 3 days in presence of sorafenib by Western blot analysis. Type of data set: functional, cell-based. The following applies: time 3.0 day. A general note: Immunoblotting shows a protein as a band on a membrane.

In data set [9] the test system is Hep 3B2. The data set is described as follows: Antiproliferative activity against human Hep3B cells assessed as reduction in cell viability at 0.01 to 100 uM measured after 5 days in presence of sorafenib and sodium oleate by CellTiter-Glo assay. Type of data set: functional, cell-based. Particulars: dose 0.01-100 µM, time 5.0 day.
In another data set the test system is BNL CL.2. The data set is described as follows: Cytotoxicity against mouse BNL CL.2 cells assessed as reduction in cell viability at 0.01 to 100 uM measured after 5 days in presence of sorafenib by CellTiter-Glo assay. Type of data set: toxicity, cell-based. Particulars: bnl cl.2, 120 h, dose 0.01-100 µM, time 5 day.
The test system of data set [10] is Hep 3B2. Nature of the data set: Induction of oxidative stress in human Hep3B cells assessed as increase in SOD1 expression measured after 3 days in presence of sorafenib by Western blot analysis. Type of data set: functional, cell-based. The following applies: time 3.0 day.
Data set [11] deals with Hep 3B2. The data set is described as follows: Induction of endoplasmic reticulum (ER) stress in human Hep3B cells assessed as increase in GADD34 expression measured after 3 days in presence of sorafenib by Western blot analysis. Type of data set: functional, cell-based. The following applies: time 3.0 day.

The EC50 is the midpoint of the concentration-response curve. For `O=C1C(Nc2ccc(N3CCCCC3)cc2)=C(c2ccccc2)C(=O)N1Cc1ccccc1`, the outcome (in data set [1]; in data set [2]; in [3]; in data set [4]; in [5]; with Hep 3B2 [7]) was inactive. Further, the outcome in the data set on Hep 3B2 [9] was inactive. Further, the concentration for a half-maximal effect (EC50) in the data set on Hep 3B2 [6] came to 1700 nM. Also, the outcome with Hep 3B2 [8], in the data set on Hep 3B2 [10] and with Hep 3B2 [11] was Active. In addition, the Activity result with BNL CL.2 is recorded as “Toxic”.
